According to US9745291B2, “PRMT5 inhibitors containing a dihydro- or tetrahydroisoquinoline and uses thereof” (Epizyme, Inc., priority 2012, dated 2017):
Where two headings read alike, the source gives them in different places.

How the values were obtained:
PRMT5/MEP50 = PRMT5/MEP50 (Homo sapiens (Human), UniProt O14744); assay: PRMT5 Biochemical Assay (PRMT5/MEP50 enzyme assay on peptide substrate, 3H-SAM Flashplate); conditions: PRMT5 biochemical assay; read-out: Biochemical IC50
[1] = tested on: symmetric di-methyl arginine in Z-138 cells; assay: Z-138 Methylation Assay (In Cell Western for symmetric di-methyl arginine and DNA content); type: cell-based; conditions: read-out: ICW EC50
Text: [formula] Where top and bottom are the normally allowed to float, but may be fixed at 100 or 0 respectively in a 3-parameter fit. The Hill Coefficient normally allowed to float but may also be fixed at 1 in a 3-parameter fit. Y is the % inhibition and X is the compound concentration. Z-138 Methylation Assay
Z-138 suspension cells were purchased from ATCC (American Type Culture Collection, Manassas, Va.). RPMI/Glutamax medium, penicillin-streptomycin, heat inactivated fetal bovine serum, and D-PBS were purchased from Life Technologies, Grand Island, N.Y., USA. Odyssey blocking buffer, 800CW goat anti-rabbit IgG (H+L) antibody, and Licor Odyssey infrared scanner were purchased from Licor Biosciences, Lincoln, Nebr., USA. Symmetric di-methyl arginine antibody was purchased from EMD Millipore, Billerica, Mass., USA. 16% Paraformaldehyde was purchased from Electron Microscopy Sciences, Hatfield, Pa., USA.
Z-138 suspension cells were maintained in growth medium (RPMI 1640 supplemented with 10% v/v heat inactivated fetal bovine serum and 100 units/mL penicillin-streptomycin) and cultured at 37° C. under 5% CO2.
Cell Treatment, in Cell Western (ICW) for Detection of Symmetric Di-Methyl Arginine and DNA Content.
Z-138 cells were seeded in assay medium at a concentration of 50,000 cells per mL to a 384-well cell culture plate with 50 μL per well. Compound (100 nL) from 384 well source plates was added directly to 384 well cell plate. Plates were incubated at 37° C., 5% CO2 for 96 hours. After four days of incubation, 40 μL of cells from incubated plates were added to poly-D-lysine coated 384 well culture plates (BD Biosciences 356697). Plates were incubated at room temperature for 30 minutes then incubated at 37° C., 5% CO2 for 5 hours. After the incubation, 40 μL per well of 8% paraformaldehyde in PBS (16% paraformaldahyde was diluted to 8% in PBS) was added to each plate and incubated for 30 minutes. Plates were transferred to a Biotek 405 plate washer and washed 5 times with 100 μL per well of wash buffer (1×PBS with 0.1% Triton X-100 (v/v)). Next 30 μL per well of Odyssey blocking buffer were added to each plate and incubated 1 hour at room temperature. Blocking buffer was removed and 20 μL per well of primary antibody was added (symmetric di-methyl arginine diluted 1:100 in Odyssey buffer with 0.1% Tween 20 (v/v)) and plates were incubated overnight (16 hours) at 4° C. Plates were washed 5 times with 100 μL per well of wash buffer. Next 20 μL per well of secondary antibody was added (1:200 800CW goat anti-rabbit IgG (H+L) antibody, 1:1000 DRAQ5 (Biostatus limited) in Odyssey buffer with 0.1% Tween 20 (v/v)) and incubated for 1 hour at room temperature. The plates were washed 5 times with 100 μL per well wash buffer then 1 time with 100 μL per well of water. Plates were allowed to dry at room temperature then imaged on the Licor Odyssey machine which measures integrated intensity at 700 nm and 800 nm wavelengths. Both 700 and 800 channels were scanned.
First, the ratio for each well was determined by:
Each plate included fourteen control wells of DMSO only treatment (minimum inhibition) as well as fourteen control wells for maximum inhibition treated with 3 μM of a reference compound (Background wells). The average of the ratio values for each control type was calculated and used to determine the percent inhibition for each test well in the plate. Reference compound was serially diluted three-fold in DMSO for a total of nine test concentrations, beginning at 3 μM. Percent inhibition was determined and IC50 curves were generated using triplicate wells per concentration of compound. […]

Z-138 cell line = assay: Z-138 Proliferation Assay (Cell Titer Glo, 5 days); type: cell-based; conditions: Z-138 cells
Text: [formula] Z-138 Proliferation Assay
Z-138 suspension cells were purchased from ATCC (American Type Culture Collection, Manassas, Va.). RPMI/Glutamax medium, penicillin-streptomycin, heat inactivated fetal bovine serum were purchased from Life Technologies, Grand Island, N.Y., USA. V-bottom polypropylene 384-well plates were purchased from Greiner Bio-One, Monroe, N.C., USA. Cell culture 384-well white opaque plates were purchased from Perkin Elmer, Waltham, Mass., USA. Cell-Titer Glo® was purchased from Promega Corporation, Madison, Wis., USA. SpectraMax M5 plate reader was purchased from Molecular Devices LLC, Sunnyvale, Calif., USA.
Z-138 suspension cells were maintained in growth medium (RPMI 1640 supplemented with 10% v/v heat inactivated fetal bovine serum and cultured at 37° C. under 5% CO2 Under assay conditions, cells were incubated in assay medium (RPMI 1640 supplemented with 10% v/v heat inactivated fetal bovine serum and 100 units/mL penicillin-streptomycin) at 37° C. under 5% CO2.
For the assessment of the effect of compounds on the proliferation of the Z-138 cell line, exponentially growing cells were plated in 384-well white opaque plates at a density of 10,000 cells/ml in a final volume of 50 μl of assay medium. A compound source plate was prepared by performing triplicate nine-point 3-fold serial dilutions in DMSO, beginning at 10 mM (final top concentration of compound in the assay was 20 μM and the DMSO was 0.2%). A 100 nL aliquot from the compound stock plate was added to its respective well in the cell plate. […] After addition of compounds, assay plates were incubated for 5 days at 37° C., 5% CO2, relative humidity >90%.
Cell viability was measured by quantitation of ATP present in the cell cultures, adding 35 μl of Cell Titer Glo® reagent to the cell plates. Luminescence was read in the SpectraMax M5 microplate reader. The concentration of compound inhibiting cell viability by 50% was determined using a 4-parametric fit of the normalized dose response curves.

[2] = Homo sapiens, Z-138, Z-138 cells

Chain of PRMT5/MEP50 (O14744 other isoform, or with tags, fused parts or gaps): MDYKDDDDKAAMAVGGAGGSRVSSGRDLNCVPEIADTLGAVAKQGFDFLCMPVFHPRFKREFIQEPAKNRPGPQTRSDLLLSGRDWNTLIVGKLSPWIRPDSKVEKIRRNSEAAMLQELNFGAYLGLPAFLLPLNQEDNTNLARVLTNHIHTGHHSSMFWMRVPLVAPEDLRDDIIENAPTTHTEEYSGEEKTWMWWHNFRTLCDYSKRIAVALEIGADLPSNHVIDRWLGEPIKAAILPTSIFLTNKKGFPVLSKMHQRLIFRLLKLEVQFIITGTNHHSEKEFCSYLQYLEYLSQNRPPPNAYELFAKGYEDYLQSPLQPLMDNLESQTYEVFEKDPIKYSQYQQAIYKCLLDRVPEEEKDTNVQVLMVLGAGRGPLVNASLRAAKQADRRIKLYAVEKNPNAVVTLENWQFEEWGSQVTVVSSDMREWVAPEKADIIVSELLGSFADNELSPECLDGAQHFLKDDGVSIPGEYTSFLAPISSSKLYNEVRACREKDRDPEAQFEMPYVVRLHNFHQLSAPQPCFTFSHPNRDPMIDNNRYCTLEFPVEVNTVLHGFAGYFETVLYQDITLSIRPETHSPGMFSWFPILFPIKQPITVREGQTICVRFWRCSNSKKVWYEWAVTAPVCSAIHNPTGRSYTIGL
Chain of PRMT5/MEP50 (Q9BQA1 other isoform, or with tags, fused parts or gaps partner): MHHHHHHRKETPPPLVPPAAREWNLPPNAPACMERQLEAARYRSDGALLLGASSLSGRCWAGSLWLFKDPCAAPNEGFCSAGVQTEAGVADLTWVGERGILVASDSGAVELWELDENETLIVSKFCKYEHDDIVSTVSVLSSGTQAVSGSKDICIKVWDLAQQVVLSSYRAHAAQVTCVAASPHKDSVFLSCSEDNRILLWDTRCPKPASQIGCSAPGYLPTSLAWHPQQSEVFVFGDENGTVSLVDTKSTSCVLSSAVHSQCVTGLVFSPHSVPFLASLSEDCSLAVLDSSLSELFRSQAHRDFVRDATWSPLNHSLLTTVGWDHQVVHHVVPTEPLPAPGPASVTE

Row | SMILES | IC50 (PRMT5/MEP50) [nM] | EC50 ([1]; Z-138 cells) [nM] | EC50 (Z-138 cell line) [µM] | EC50 [1, 2] [nM] | EC50 (Z-138 cell line; Homo sapiens, Z-138, 120 h) [µM]
1 | CN(CC1CCNC1)S(=O)(=O)c1ccccc1OCC(=O)NC[C@@H](O)CN1CCc2ccccc2C1 (stereo partly drawn) [Compound 220] | < 100 | 101 to 1000 | 10 to 50 |  | 
2 | NC1CCN(S(=O)(=O)c2ccccc2OCC(=O)NC[C@@H](O)CN2CCc3ccccc3C2)C1 (stereo partly drawn) [Compound 221] | < 100 |  |  | 101 to 1000 | 10 to 50
3 | Cn1c(CCC(=O)NC[C@H](O)CN2CCc3ccccc3C2)nc2ccccc21 [Compound 222] | 101 to 1000 |  |  | 101 to 1000 | 1 to 10
4 | O=C(COc1nc2ccccc2[nH]1)NC[C@H](O)CN1CCc2ccccc2C1 [Compound 223] | 101 to 1000 |  |  | 101 to 1000 | 1 to 10
5 | Cc1ccc2[nH]c(CCC(=O)NC[C@H](O)CN3CCc4ccccc4C3)nc2c1 [Compound 224] | < 100 |  |  | < 100 | 1 to 10
6 | O=C(CCc1nc2cc(F)ccc2[nH]1)NC[C@H](O)CN1CCc2ccccc2C1 [Compound 225] | < 100 |  |  | < 100 | 0.101 to 1
7 | O=C(CCc1nc2cc(Cl)ccc2[nH]1)NC[C@H](O)CN1CCc2ccccc2C1 [Compound 226] | < 100 |  |  | < 100 | 0.101 to 1
8 | O=C(CCc1nc2c(Cl)cccc2[nH]1)NC[C@H](O)CN1CCc2ccccc2C1 [Compound 227] | < 100 |  |  | < 100 | 0.101 to 1
9 | CN(C[C@H](O)CN1CCc2ccccc2C1)C(=O)CCc1nc2ccccc2[nH]1 [Compound 228] | < 100 |  |  | < 100 | 0.101 to 1
10 | O=C(CCc1cn2ccccc2n1)NC[C@H](O)CN1CCc2ccccc2C1 [Compound 229] | 101 to 1000 |  |  | 101 to 1000 | 10 to 50
11 | Cn1cncc1CCNC(=O)c1cccc(OCC(=O)NC[C@@H](O)CN2CCc3ccccc3C2)c1 [Compound 231] | 101 to 1000 |  |  | > 1000 | > 20
12 | CN(CC1CNC1)S(=O)(=O)c1ccccc1OCC(=O)NC[C@@H](O)CN1CCc2ccccc2C1 [Compound 232] | < 100 |  |  | < 100 | 1 to 10
13 | Cn1cnc(-c2cccc(OCC(=O)NC[C@@H](O)CN3CCc4ccccc4C3)c2)c1 [Compound 234] | 101 to 1000 |  |  | > 1000 | > 20
14 | O=C(COc1ccccc1[C@@H]1CCCCN1)NC[C@@H](O)CN1CCc2ccccc2C1 [Compound 236] | 101 to 1000 |  |  | > 1000 | 10 to 50
15 | O=C(COc1ccccc1C1CNCC(O)C1)NC[C@@H](O)CN1CCc2ccccc2C1 (stereo partly drawn) [Compound 237] | 101 to 1000 |  |  | > 1000 | > 20
16 | CN1CCC(CN(C)S(=O)(=O)c2ccccc2OCC(=O)NC[C@@H](O)CN2CCc3ccccc3C2)C1 (stereo partly drawn) [Compound 238] | < 100 |  |  | < 100 | 0.101 to 1
17 | O=C(CNc1nc2ccccc2[nH]1)NC[C@H](O)CN1CCc2ccccc2C1 [Compound 239] | < 100 |  |  | < 100 | 1 to 10
18 | O=C(CCc1ncc[nH]1)NC[C@H](O)CN1CCc2ccccc2C1 [Compound 240] | 101 to 1000 |  |  | 101 to 1000 | 10 to 50
19 | O=C(CCc1nc2c(F)cccc2[nH]1)NC[C@H](O)CN1CCc2ccccc2C1 [Compound 241] | < 100 |  |  | < 100 | 0.101 to 1
20 | COc1cccc2[nH]c(CCC(=O)NC[C@H](O)CN3CCc4ccccc4C3)nc12 [Compound 242] | < 100 |  |  | < 100 | 1 to 10
21 | O=C(CCc1nc(-c2ccccc2)c[nH]1)NC[C@H](O)CN1CCc2ccccc2C1 [Compound 243] | < 100 |  |  | < 100 | 1 to 10
22 | COCCNCCNC(=O)c1cccc(OCC(=O)NC[C@@H](O)CN2CCc3ccccc3C2)c1 [Compound 244] | < 100 |  |  | > 1000 | > 20
23 | Cn1ccnc1CCNC(=O)c1cccc(OCC(=O)NC[C@@H](O)CN2CCc3ccccc3C2)c1 [Compound 245] | 101 to 1000 |  |  | > 1000 | > 20
24 | CNC1CN(S(=O)(=O)c2ccccc2OCC(=O)NC[C@@H](O)CN2CCc3ccccc3C2)CC1O (stereo partly drawn) [Compound 246] | < 100 |  |  | 101 to 1000 | > 20
25 | CN1CCCC(c2c(CS(C)(=O)=O)cccc2OCC(=O)NC[C@@H](O)CN2CCc3ccccc3C2)C1 (stereo partly drawn) [Compound 247] | 101 to 1000 |  |  | > 1000 | > 20
26 | COc1ccc2[nH]c(CCC(=O)NC[C@H](O)CN3CCc4ccccc4C3)nc2c1 [Compound 249] | < 100 |  |  | < 100 | 1 to 10
27 | Cc1cccc2[nH]c(CCC(=O)NC[C@H](O)CN3CCc4ccccc4C3)nc12 [Compound 250] | < 100 |  |  | < 100 | 1 to 10
28 | O=C(COc1ccccc1C1CCCCN1)NC[C@H](O)CN1CCc2ccccc2C1 (stereo partly drawn) [Compound 253] | < 100 |  |  | 101 to 1000 | 10 to 50
29 | CC1NCCCC1c1ccccc1OCC(=O)NC[C@@H](O)CN1CCc2ccccc2C1 (stereo partly drawn) [Compound 254] | 101 to 1000 |  |  | > 1000 | 10 to 50
